90 molecules from a melting point compilation (Tetko et al.; mined from patent text by program, amines drawn as free bases though some values may be those of a salt) can be followed below.

Where only a bound is given, the exact number is not on record here.

On to `CCCCCCCCC(SCCCC)C(=O)Nc1cccc2cnccc12` (stereo not given), for which the melting point – broadly, the temperature, or range, at which the solid turns liquid – lay in the range of 73 to 75 °C. The result for `CC(CCNc1cccc(-c2ccnc3c(C(=O)c4cccs4)cnn23)c1)c1ccccc1` (stereo not given) reads 64 to 68 °C; that for `CC(Cc1cccnc1)(NC(=O)OC1C2CC3CC(C2)CC1C3)C(=O)NCCc1ccccc1` (stereo not given), 167 to 169 °C. As for `O=C(Cc1ccc(F)cc1)c1cccs1`, the melting point lay within 61 to 62.5 °C.

As to `CCOC(=O)c1ccc(NC(=O)c2ccc3c(c2)C(C)(C)CC(=O)N3C)cc1`, the melting point fell in the range of 175 to 177 °C. Molecule `CC(C)c1ccc2c(c1)OC1(OC(=O)C(C)(C)C)c3ccccc3C(=O)C21OC(=O)C(C)(C)C` (stereo not given) showed a melting point of 153 to 157 °C.

`CN1CCC(NC(=O)c2cccc3nc(-c4ccccc4)oc23)CC1` registered a melting point of 209 to 210 °C. The molecule `CS(=O)(=O)C(=[N+]=[N-])S(C)(=O)=O` returned a melting point of 120 to 124 °C.

`CC(C)(C)[N+]([O-])=Cc1ccccc1OCc1ccccc1`: the melting point was determined as 111 °C. The figure for `CCCc1c(C#N)c(-c2ccc(C#N)cc2)c(C)n1Cc1cnc(Cl)c(COC(=O)CCC(=O)O)c1` is 167 to 168 °C. The figure for `O=C(O)c1c(F)c(Cl)c(O)c(Cl)c1F` is 102 to 105 °C. `CCCc1c(CC)sc2[nH]c(=O)c(=O)[nH]c12` had a melting point of 295 to 298 °C. The figure for `COC(=O)Cc1cccc(OCc2nc(CCc3nc(-c4ccccc4)oc3C)no2)c1` is 76 to 77 °C; for `CCCOc1nc2sc(Cl)cc2c(=S)n1CCC` it is 81 to 83 °C; for `CC(C)n1c(CC[C@@H](O)C[C@@H](O)CC(=O)OC(C)(C)C)c(-c2ccc(F)cc2)c(-c2ccccc2)c1C(N)=O` it is 94 to 96 °C.

For `COc1ccc(N2CCN(C(=O)c3cn4cc(Cl)ccc4n3)CC2)cc1`, the melting point lay within 180 to 181 °C. The figure for `O=C1C2=C(OCCO2)C(=O)c2cc(Cl)ccc21` is 209 to 210 °C; for `CCCN(Cc1ccc(-c2ccccc2C(=O)C(=O)O)cc1)c1ncccc1C(=O)O` it is 179 to 180 °C. The result for `CN1CCN(Cc2nc3cccnc3n2CCO)CC1` reads 89.5 °C; that for `CSCCOC(=O)N(C)c1nnc(-c2cccnc2)s1`, 126 to 128 °C. The result for `CCCCCCP1C(O)C(O)P(CCCCCC)C(O)C1O` (stereo not given) reads 140 to 147 °C; that for `CN(Cc1coc(C=Cc2ccc(C(F)(F)F)cc2)n1)c1ccc(CCCCn2ccnn2)cc1`, 112 to 114 °C. For `C1=C(c2c[nH]c3ccccc23)CCN(CC2COc3ccc4ncccc4c3O2)C1` (stereo not given), the melting point came to 217 °C.

Molecule `CCOC(=O)/C=C/c1cc(F)c2ncc(C(=O)NCc3ccc(Cl)cc3)c(O)c2c1` had a melting point of 278 to 280 °C. In turn, `COC(=O)CONC(=O)c1c(Cl)ccc(Cl)c1OC` came in with a melting point of 102 to 105 °C. The result for `N#Cc1cnn2c(-c3cccc(Cl)c3)ccnc12` reads 238 to 240 °C. Consider `CCCCCC(C)C(C)c1cc(O)c2c(c1)OC(C)(C)C1=C2CN(CC(=O)O)CC1` (stereo not given), for which the melting point was in the range of 192 to 195 °C.

Take `O=C1Cc2ccccc2C=Cc2cc(Br)ccc21`: the melting point was 121 to 123 °C. The result for `COC(=O)c1cc(N)c(Cl)c(N)c1` reads 110 to 120 °C. The figure for `O=C(NCCn1ccnc1)c1cc(N2CC2)c([N+](=O)[O-])cc1[N+](=O)[O-]` is greater than 250 °C.

Regarding `O=c1[nH]ncc2[nH]c(-c3ccc(OC(F)F)c(OCC4CC4)c3)c(Cl)c12`, the melting point was in the range of 258 to 260 °C.

As to `Oc1c(Cl)cc(Cl)cc1CNc1cnsn1`, the melting point is 131 to 132 °C. The figure for `CCCCc1cc2ccccc2c(Oc2ccc(/C=C/C(=O)O)cc2)c1-c1ccc(O)cc1` is 107 to 109 °C; for `O=C(O)Cn1cc(Cl)cnc1=O` it is 186 to 188 °C. In turn, `CCCc1nnc(Cc2ccc(NC(=O)/C=C/c3cnn(C)c3-c3ccc(F)cc3)cc2)o1` registered a melting point of 154 to 155 °C. The result for `N=C(NN)c1cccc(Cc2c[nH]cn2)c1O` reads 188 °C. The figure for `NC(=O)CNC(=O)c1cc(Cl)nc(Cl)c1` is 211 to 213 °C; for `CCCCCCOc1ccc(-c2nccc(-c3cccc(F)c3F)n2)cn1` it is 110 °C. The result for `O=C(O)Cc1c(-c2ccccc2)[nH]c2nccnc12` reads 276 to 277 °C; that for `CCOC(=O)c1cc2cc(NS(=O)(=O)CCCCl)ccc2[nH]1`, 195 to 196 °C.

`Cc1cnc(-c2cc3c(O)cccc3s2)o1` yielded a melting point of 188 to 189 °C.

As to `Cc1ccc(Sc2ccnc3sccc23)cc1`, the melting point was in the range of 90 to 92 °C. `Nc1c(Br)cc(Br)c(CCC(=O)O)c1Br` showed a melting point of 195 to 197 °C. Regarding `CCOC(=O)C(C)(C)NC(=O)c1cccc(C2=NC(C)(C)Cc3c(CC#N)c(OC)c4c(c32)CC(C)(C)O4)c1`, the melting point was in the range of 126 to 128 °C. The result for `CCCOc1ccccc1-c1nc2[nH]c(=O)c(=O)[nH]c2c(=O)[nH]1` reads 312 to 315 °C; that for `C=C1C(=C)C2OC1c1cc3cccc(OC)c3cc12` (stereo not given), 154 to 155 °C; that for `COC(=O)Cn1cc([C@H]2CCC3C4CC=C5C[C@@H](O)CC[C@]5(C)C4CC[C@@]32C)nn1` (stereo not given in full), 221 to 223 °C. `CC(=O)Nc1nc2c(s1)-c1nc(N3CCCC3=O)ncc1CC2`: the melting point is greater than 160 °C. Regarding `COC1=C(c2csc(NC(=O)c3cc4ccccc4[nH]3)n2)C=CC(Cl)(OC)C1` (stereo not given), the melting point came out at 293 °C.

In turn, `O=Cc1ccc(C=Cc2ccc3ccccc3n2)cc1` showed a melting point of 112 to 113 °C.

Consider `CC(=O)Oc1cc(O)c(C=O)c(OC(C)=O)c1`, for which the melting point fell in the range of 103 to 105 °C.

The molecule `CC(C)c1ccc(C(Cl)=NO)cc1` displayed a melting point of 61 to 63 °C. The molecule `CC1(C)CCC(C)(C)c2cc(C(Br)C(Br)c3ccc(C#N)cc3)ccc21` (stereo not given) registered a melting point of 174 to 175 °C.

On to `COCCN=Cc1cc(OC)c(OC)cc1[N+](=O)[O-]`, for which the melting point is 65 to 66 °C. The figure for `C[C@]12CCC(=O)N[C@@H]1CCc1cc(Sc3ccccc3)ccc12` is 183 to 185 °C; for `CC(C)c1nc(CCOC(=O)N[C@H](C(=O)N[C@@H](Cc2ccccc2)[C@@H](O)C[C@H](Cc2ccccc2)NC(=O)OCc2cncs2)C(C)C)cs1` it is 159 to 160 °C; for `O=[N+]([O-])c1ccccc1CCN1CCN(c2ccccc2)CC1` it is 76 °C. Consider `N#Cc1cc(-c2ccc(Cl)s2)[nH]c1Cl`, for which the melting point was greater than 200 °C.

Regarding `Brc1ccccc1Oc1nc2ccccc2n2cncc12`, the melting point lay within 180 to 182 °C.

In turn, `Cc1cc(SCc2ccc(OCc3ccc(C(F)(F)F)cc3)cc2)c(Cl)cc1OCC(=O)O` returned a melting point of 142 to 143 °C. The result for `Cc1cc(=O)oc2nc(N(C)C)ccc12` reads 157 to 160 °C; that for `Cc1nc(-c2cc3cccc(N(C)S(=O)(=O)c4cccs4)c3[nH]2)cs1`, 161 to 162 °C; that for `CC(C)n1cnc2c(NCc3cc(O)ccc3O)nc(NC[C@@H](C)O)nc21`, 162 to 164 °C. The figure for `N#Cc1cnn2c(C(F)(F)F)cc(-c3ccc(F)c(Cl)c3)nc12` is 190 °C; for `CCCCCCCCCCCC=C1NN=CN1N` it is 40 to 43 °C. The molecule `COc1cccc(CC(=O)O)c1OCCCc1cn(-c2ccc(C(F)(F)F)nn2)nc1C(C)C` displayed a melting point of 92 to 93 °C.

As to `COC(=O)c1cccc(Cn2c(C(=O)NC(N)=S)cc3cc(C)cc(C)c32)c1`, the melting point fell in the range of 198 to 199 °C. In the case of `Cc1cn(C)c2c1N(C(=O)CN1CCN(C)CC1)c1ccccc1NC2=O`, the melting point fell in the range of 205 to 207 °C.

Turning to `COc1ccc2[nH]c(=O)c(=O)n(C)c2c1`, the melting point came to 310 °C. The result for `CCCc1c(OCc2cc(C=CC(=O)O)ccc2OC)ccc(C(C)=O)c1O` reads 245 to 246 °C; that for `COc1cc2c(c3c1OC(C)(C)C3)C(c1cccc(-c3ccc(NC(=O)CNC(C)=O)cc3)c1)=NC(C)(C)C2`, 218 to 221 °C; that for `CC(C)COc1ccccc1-c1ncc(C#N)c(=O)[nH]1`, 186 to 187 °C. The figure for `CC(C)(C)OC(=O)N1CCC(OCc2ccccc2)C1CC(=O)Cn1cnc2cccc(F)c2c1=O` (stereo not given) is 221 °C; for `ClC(Cl)=Cc1sc(-c2ccccc2)cc1-c1ccccc1` it is 111 to 113 °C; for `CS(=O)CCc1nc2nc[nH]c2c2nc(-c3ccc(-c4ccccc4)cc3)nn12` (stereo not given) it is 188 °C.

`CCC(CC)(CC(=O)Nc1cccc(OCc2ccc3ccc(F)cc3n2)c1)C(=O)OC` displayed a melting point of 92 to 93 °C. `COc1ccc(S(=O)(=O)C(CCCCc2ccccc2)C(=O)NO)cc1OC` (stereo not given): the melting point is 180 to 188 °C. As to `COc1cc(CCCC2OC(=O)NC2=O)ccc1OCc1csc(-c2ccccc2)n1` (stereo not given), the melting point fell in the range of 96 to 97 °C.

In turn, `CC(=O)N1CCN2c3c(cccc3C3CCCC32)C1` (stereo not given) showed a melting point of 111 to 113 °C.

The molecule `CC(=O)Nc1ncc2ncn([C@@H]3C[C@H](OC(C)=O)[C@@H](O)[C@H]3O)c2n1` (racemic) had a melting point of 222 to 223 °C. `CC(C)(C)OC(=O)Nc1cc(OCC2COC(=O)O2)c(C#Cc2ccccc2)cc1N` (racemic) gave a melting point of 140 °C.

Turning to `CCOC(=O)C(C)Oc1ccc([N+](=O)[O-])cc1` (stereo not given), the melting point lay within 55 to 56 °C.

With `CCOC(=O)N1CCC(c2ccc3oc(-c4ccc(S(C)(=O)=O)cc4F)nc3c2)CC1`, the melting point lay within 145 to 148 °C. The result for `COc1ccc(-c2cn(-c3cccc(OCCn4ccnc4)c3)c3ncnc(N)c23)cc1OCc1ccccc1` reads 150 °C; that for `CCCn1nc(C)c([N+](=O)[O-])c1C(N)=O`, 136 to 138 °C. The result for `CCN(CC)C(=O)Cc1c(-c2ccc(OC)cc2)nn2c(C)cc(C)nc12` reads 120 to 124 °C; that for `O=C1COC(=O)c2ccccc2N1`, 200 to 201 °C; that for `O=C1CCC(CO)N1C(=O)Nc1ccccc1` (stereo not given), 99 to 101 °C. Turning to `Cc1cscc1NC(=S)Nc1cc(Cl)c(Cl)cc1N`, the melting point lay within 310 to 320 °C. The result for `COC(=O)C1=C(C)NC(C)=C(C(=O)OCCCCCCOc2cc(-c3ccccc3)[nH]n2)C1c1cccc([N+](=O)[O-])c1` (stereo not given) reads 151 to 153 °C.
